Source: PMC5612938, “A multiple biomarker assay for quality assessment of botanical drugs using a versatile microfluidic chip” (Scientific Reports, 2017)
Structures can show the parent of a compound that is named as a salt. Marks after values point to notes of the source that are not given here.

Legend:
[1] = target: T1, Thrombin (from human plasma) (Homo sapiens, UniProt P00734); test: on-chip thrombin inhibition assay (S-2238 hydrolysis, absorbance 405 nm); assay type: biochemical; conditions: for IC50: for thrombin
T1 construct: Thrombin (from human plasma); purchased Sigma-Aldrich; host or cells: human plasma
Method: To enhance the performance of the on-chip assay, experimental parameters such as concentrations of enzymes and substrates, substrate reaction time, and incubation time of samples and enzymes were stepwise optimized. The activity of thrombin was determined by measuring the hydrolysis of chromogenic substrate S-2238 (HD-Phe-Pip-Arg-pNA) at 405 nm. As depicted in Fig. 2a, the absorbance increased rapidly along with the elevated concentrations of thrombin, while it reached a plateau at 0.5 U/mL. […] Moreover, it was clear from Fig. 2d that the maximum inhibitory effect of QSYQ sample (I1 of Table 1 in this assay) on thrombin was observed after 60 min of incubation. Therefore, to achieve favorable response and prevent signal saturation, optimal assay conditions for thrombin were determined to be 0.2 U/mL, 0.31 mM, 30 min and 60 min for the final concentrations of thrombin and S-2238, substrate reaction time and incubation time, respectively. […] In this assay, the concentrations of ACE and FAPGG were finally set at 0.027 U/mL and 0.72 mM, where the background value was lower and the reaction time was relatively shorter (30 min).
The optimized protocol was first applied to assess the quality of 11 batches of QSYQ intermediates (Table 1). Enzyme inhibition (in percentages) was employed as an indicator of drug quality and calculated according to the following equations: thrombin inhibition (%) = [1 − (AQSYQ/Ablank)] × 100; ACE inhibition (%) = [1 − (ΔAQSYQ/ΔAblank)] × 100; where AQSYQ and Ablank were the absorbance of the test sample and the blank sample after the enzymatic reaction (the background value was subtracted), and ΔAQSYQ and ΔAblank were the absorbance decrease between 0 min and 30 min of the samples. A scatter plot was generated to display the inhibition result of thrombin and ACE simultaneously. […] Moreover, artificial abnormal samples I6, I7 and I8, each with one abnormal (pre-extracted) herb, presented relatively lower inhibitions compared with I1.
(§1) Thrombin (from human plasma), ACE (from rabbit lung), FAPGG and captopril were purchased from Sigma-Aldrich (St. Louis, USA). S-2238 was obtained from Aglyco (Beijing, China). AEBSF-HCl was purchased from Selleckchem (Houston, USA). Trizma base (Tris) was obtained from Sangon Biotech (Shanghai, China) and dimethyl sulfoxide (DMSO) from J&K Scientific (Beijing, China). All other chemicals were purchased from Sinopharm Chemical (Shanghai, China) unless otherwise indicated. 0.2 M Phosphate buffer (PB, pH 6.5), and 50 mM Tris-HCl buffer (200 mM NaCl, pH 8.3) were prepared as assay buffers for thrombin and ACE, respectively.
MBs (10 mg/mL) were diluted 10 times in PB or Tris-HCl buffer, and 10 μL of the diluted MBs (1 mg/mL) were injected into one channel of the chip using a syringe infusion pump (Harvard Apparatus, USA) and retained by an external magnet. Then, 10 μL of thrombin or ACE solution was added and incubated with MBs for two hours at room temperature to form enzyme-MB complexes. The magnet was manually controlled to move MBs back and forth to enhance the ratio of reaction. Subsequently, MBs were washed twice in assay buffer and magnetically transferred to the other channel through the fluidic bridge, whose opening and closing was controlled by a pneumatic valve. Next, 10 μL of sample solutions of tested drug and 10 μL of enzymatic substrate were sequentially infused to the channel by the pump and incubated with the enzyme. When the enzymatic reaction was finished, the MBs were retained in the channel, and air was injected into the channel from the inlet using a syringe to push all the reacted solution to a 384-well plate. The absorbance of the solution was then monitored at 405 nm (for S-2238) or 340 nm (for FAPGG) using an Infinite F200 spectrophotometer (Tecan, Männedorf, Switzerland). Moreover, after detection, the reaction channel was washed three times by assay buffer to remove unbound constituents. […]

[2] = target: T1, Thrombin (from human plasma); test: on-chip affinity screening, binding degree by LC-MS peak area vs protein-free control (thrombin); conditions: for thrombin; [(As − Ac)/As] × 100, sample vs protein-free control, EIC peak area
From the text: (§2) In addition to quality assessment, the microfluidic chip can also function as “affinity chromatography” to identify bioactive constituents from botanical drugs in a convenient and efficient manner. After the bioassay, the bound phytochemicals were dissociated from the enzymes and accurately identified by LC-MS. The material used for the chambers in microfluidic system, polydimethylsiloxane (PDMS), is apt to adsorb small molecules nonspecifically, thus a protein-free control was applied to reflect the degree of nonspecific binding of compounds to the chip. Peak areas were obtained from the extracted ion chromatography (EIC) in an ion-trap mass spectrometry (IT-MS), and binding degree (binding degree % = [(As − Ac)/As] × 100, where As and Ac were the peak area in the sample and control, respectively) was calculated to indicate binding specificity. […] All these peaks were unambiguously confirmed via comparisons with chemical standards in terms of retention time and mass spectra (Table 2), and five thrombin inhibitors (danshensu, salvianolic acid B, salvianolic acid C, rosmarinic acid and ginsenoside Rg1) and six ACE inhibitors (astragaloside IV, ononin, formononetin, calycosin, danshensu and salvianolic acid B) were preliminarily identified. […] Enzyme inhibition assays of these hit compounds were then performed to verify the screening results. […] Compounds showing an inhibition rate over 70% were subjected to IC50 measurement.
(§3) MBs (10 mg/mL) were diluted 10 times in PB or Tris-HCl buffer, and 10 μL of the diluted MBs (1 mg/mL) were injected into one channel of the chip using a syringe infusion pump (Harvard Apparatus, USA) and retained by an external magnet. Then, 10 μL of thrombin or ACE solution was added and incubated with MBs for two hours at room temperature to form enzyme-MB complexes. The magnet was manually controlled to move MBs back and forth to enhance the ratio of reaction. Subsequently, MBs were washed twice in assay buffer and magnetically transferred to the other channel through the fluidic bridge, whose opening and closing was controlled by a pneumatic valve. Next, 10 μL of sample solutions of tested drug and 10 μL of enzymatic substrate were sequentially infused to the channel by the pump and incubated with the enzyme. When the enzymatic reaction was finished, the MBs were retained in the channel, and air was injected into the channel from the inlet using a syringe to push all the reacted solution to a 384-well plate. The absorbance of the solution was then monitored at 405 nm (for S-2238) or 340 nm (for FAPGG) using an Infinite F200 spectrophotometer (Tecan, Männedorf, Switzerland). Moreover, after detection, the reaction channel was washed three times by assay buffer to remove unbound constituents. 20 μL of 80% aqueous methanol was then injected and incubated with MBs for one hour to dissociate the bound constituents. The resulting solutions of replicates were combined, evaporated by a centrifugal evaporator, reconstituted in 80% aqueous methanol, centrifuged at 10,000 rpm for 10 min, and analyzed by LC-MS for chemical identification.
An Agilent 1100 HPLC system (Agilent Technologies, Waldbronn, Germany) coupled with an LCQ Deca XP^plus IT-MS (Thermo Finnigan, San Jose, CA, USA) equipped with an electrospray ionization (ESI) interface was employed for structure elucidation of the bounded constituents. […]

ACE (from rabbit lung) [3] = target: T2, ACE (from rabbit lung) (Oryctolagus cuniculus, UniProt P12822); test: on-chip ACE inhibition assay (FAPGG hydrolysis, absorbance decrease 340 nm); assay type: biochemical; set-up: key to IC50 (μM) or inhibition rate: /: No obvious inhibition observed; conditions: for IC50 (μM) or inhibition rate: symbol / = no obvious inhibition
T2 construct: ACE (from rabbit lung); purchased Sigma-Aldrich; host or cells: rabbit lung
T2 sequence (P12822 34-1310): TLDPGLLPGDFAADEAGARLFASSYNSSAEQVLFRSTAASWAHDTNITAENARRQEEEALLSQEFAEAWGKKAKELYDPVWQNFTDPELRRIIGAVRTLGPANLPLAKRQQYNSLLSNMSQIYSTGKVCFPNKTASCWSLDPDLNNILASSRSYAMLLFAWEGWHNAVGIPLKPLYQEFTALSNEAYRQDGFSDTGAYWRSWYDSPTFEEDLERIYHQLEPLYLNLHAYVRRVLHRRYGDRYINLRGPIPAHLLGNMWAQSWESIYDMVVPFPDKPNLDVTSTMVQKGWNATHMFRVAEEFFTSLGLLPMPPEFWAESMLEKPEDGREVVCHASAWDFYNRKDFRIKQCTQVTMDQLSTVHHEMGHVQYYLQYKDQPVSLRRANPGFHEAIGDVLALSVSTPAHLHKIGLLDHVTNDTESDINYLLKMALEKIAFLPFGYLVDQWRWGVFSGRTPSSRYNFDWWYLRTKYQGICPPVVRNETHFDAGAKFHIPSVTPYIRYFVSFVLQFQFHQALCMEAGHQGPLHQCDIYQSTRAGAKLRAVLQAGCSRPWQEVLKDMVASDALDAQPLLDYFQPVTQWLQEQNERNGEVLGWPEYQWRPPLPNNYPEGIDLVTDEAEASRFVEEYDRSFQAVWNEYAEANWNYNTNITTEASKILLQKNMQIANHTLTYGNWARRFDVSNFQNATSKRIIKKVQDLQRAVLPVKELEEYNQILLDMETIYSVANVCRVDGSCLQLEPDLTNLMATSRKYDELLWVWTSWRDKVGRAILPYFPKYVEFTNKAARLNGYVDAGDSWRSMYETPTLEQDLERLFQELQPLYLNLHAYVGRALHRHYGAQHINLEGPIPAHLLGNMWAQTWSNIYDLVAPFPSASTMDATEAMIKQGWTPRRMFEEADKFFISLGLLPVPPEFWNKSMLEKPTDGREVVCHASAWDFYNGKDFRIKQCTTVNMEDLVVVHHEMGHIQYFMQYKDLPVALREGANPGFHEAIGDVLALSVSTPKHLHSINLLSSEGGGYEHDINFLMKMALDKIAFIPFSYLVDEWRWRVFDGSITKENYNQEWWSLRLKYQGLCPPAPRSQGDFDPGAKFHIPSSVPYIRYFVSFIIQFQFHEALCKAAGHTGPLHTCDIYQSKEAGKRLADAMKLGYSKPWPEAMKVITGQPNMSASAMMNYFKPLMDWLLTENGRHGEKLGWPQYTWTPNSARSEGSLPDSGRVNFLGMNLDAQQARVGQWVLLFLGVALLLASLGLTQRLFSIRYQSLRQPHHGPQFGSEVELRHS
Method: To enhance the performance of the on-chip assay, experimental parameters such as concentrations of enzymes and substrates, substrate reaction time, and incubation time of samples and enzymes were stepwise optimized.
The optimized protocol was first applied to assess the quality of 11 batches of QSYQ intermediates (Table 1). Enzyme inhibition (in percentages) was employed as an indicator of drug quality and calculated according to the following equations: thrombin inhibition (%) = [1 − (AQSYQ/Ablank)] × 100; ACE inhibition (%) = [1 − (ΔAQSYQ/ΔAblank)] × 100; where AQSYQ and Ablank were the absorbance of the test sample and the blank sample after the enzymatic reaction (the background value was subtracted), and ΔAQSYQ and ΔAblank were the absorbance decrease between 0 min and 30 min of the samples.
as §1, with “S-2238 was obtained from Aglyco (Beijing, China).” left out
as §3, with “The absorbance of the solution was then monitored at 405 nm (for S-2238) or 340 nm (for FAPGG) using an Infinite F200 spectrophotometer (Tecan, Männedorf, Switzerland).” left out

ACE (from rabbit lung) [4] = target: T2, ACE (from rabbit lung); test: on-chip affinity screening, binding degree by LC-MS peak area vs protein-free control (ACE); conditions: for ACE; [(As − Ac)/As] × 100, sample vs protein-free control, EIC peak area
From the text: as §2, §3
An Agilent 1100 HPLC system (Agilent Technologies, Waldbronn, Germany) coupled with an LCQ Deca XP^plus IT-MS (Thermo Finnigan, San Jose, CA, USA) equipped with an electrospray ionization (ESI) interface was employed for structure elucidation of the bounded constituents. The analysis was performed in negative ionization mode under following operation parameters: scan range m/z 100–1500; capillary voltage −15 V; source voltage −3 kV; capillary temperature 350 °C; sheath gas (N2) 60 arb; auxiliary gas (N2) 20 arb.

Row | Compound | IC50 [1] [µM] | IC50 (μM) or inhibition rate (ACE (from rabbit lung) [3]; for ACE) | Binding degree (%) (ACE (from rabbit lung) [4]) | other results
1 | O=C(/C=C/c1ccc(O)c2oc(-c3ccc(O)c(O)c3)cc12)O[C@H](Cc1ccc(O)c(O)c1)C(=O)O [Salvianolic acid C] | 180 | – | – | thrombin inhibition (in words) ([1]; at tested concentrations): good thrombin inhibitions; Binding degree (%) [2]: 100^c %
2 | CC(C)(O)[C@@H]1CC[C@](C)([C@H]2[C@@H](O)C[C@@]3(C)[C@@H]4C[C@H](O[C@@H]5O[C@H](CO)[C@@H](O)[C@H](O)[C@H]5O)[C@H]5C(C)(C)[C@@H](O[C@@H]6OC[C@@H](O)[C@H](O)[C@H]6O)CC[C@@]56C[C@@]46CC[C@]23C)O1 [Astragaloside IV] | – | /^g | 28.3^d % | –
3 | NCCc1ccc(S(=O)(=O)F)cc1 [AEBSF-HCl, reference compound] | 3.91 | – | – | –
4 | COc1ccc(-c2coc3cc(O)ccc3c2=O)cc1O [Calycosin] | – | /^g | 19.1^d % | –
5 | COc1ccc(-c2coc3cc(O)ccc3c2=O)cc1 [Formononetin] | – | /^g | 53.8^d % | –
6 | COc1ccc(-c2coc3cc(O[C@@H]4O[C@H](CO)[C@@H](O)[C@H](O)[C@H]4O)ccc3c2=O)cc1 [Ononin] | – | – | 52.6^d % | ACE inhibition (in words) (ACE (from rabbit lung) [3]; at tested concentrations): showed ACE inhibitions; inhibition rate (ACE (from rabbit lung) [3]; for ACE, maximum inhibition rate observed in the assay): 30.6%^d
